Assay results from ChEMBL document CHEMBL1151471, “Vancomycin-resistant Staphylococcus aureus isolates associated with Inc18-like vanA plasmids in Michigan” (2008).
≈ marks a conversion by molar mass, not a printed value.

Assays:
Type in all cases: functional
[1] = system: Staphylococcus aureus; test: Antibacterial activity against vancomycin-resistant Staphylococcus aureus HIP14300 isolated from patients foot wound by broth microdilution method
[2] = system: Staphylococcus aureus; test: Antibacterial activity against vancomycin-resistant Staphylococcus aureus AIS2006049 isolated from patients arm wound by broth microdilution method
[3] = system: Staphylococcus aureus; test: Antibacterial activity against vancomycin-resistant Staphylococcus aureus HIP15178 isolated from patients surgical wound by broth microdilution method
[4] = system: Staphylococcus aureus; test: Antibacterial activity against vancomycin-resistant Staphylococcus aureus AIS2006032 isolated from patients foot wound by broth microdilution method
[5] = system: Enterococcus avium; test: Antibacterial activity against Enterococcus avium AIS2007004 isolated from patients rectum by broth microdilution method
[6] = system: Enterococcus faecalis; test: Antibacterial activity against Enterococcus faecalis HIP14333 isolated from patients rectum by broth microdilution method
[7] = system: Enterococcus faecalis; test: Antibacterial activity against Enterococcus faecalis HIP15179 coisolated with vancomycin-resistant Staphylococcus aureus by broth microdilution method
[8] = system: Enterococcus faecalis; test: Antibacterial activity against Enterococcus faecalis AIS2007003 isolated from patients rectum by broth microdilution method

Row | Compound | MIC [1] [µg/mL] | MIC [2] [µg/mL] | MIC [3] [µg/mL] | MIC [4] [µg/mL] | MIC [5] [µg/mL] | MIC [6] [µg/mL] | MIC [7] [µg/mL] | MIC [8] [µg/mL]
1 | CCC[C@@H]1C[C@@H](C(=O)N[C@@H]([C@H]2O[C@H](SC)[C@H](O)[C@@H](O)[C@H]2O)[C@H](C)Cl)N(C)C1 [CLINDAMYCIN] | > 16 | > 16 | > 16 | > 16 | – | – | – | –
2 | CO[C@H]1/C=C/O[C@@]2(C)Oc3c(C)c(O)c4c(O)c(c(/C=N/N5CCN(C)CC5)c(O)c4c3C2=O)NC(=O)/C(C)=C\C=C\[C@H](C)[C@H](O)[C@@H](C)[C@@H](O)[C@@H](C)[C@H](OC(C)=O)[C@@H]1C [RIFAMPIN] | ≤ 0.5 | ≤ 0.5 | ≤ 0.5 | ≤ 0.5 | 1 (≈ 1.22 µM) | 1 (≈ 1.22 µM) | 2 (≈ 2.43 µM) | 1 (≈ 1.22 µM)
3 | GENTAMICIN | < 2 | < 2 | < 2 | < 2 | > 500 | > 500 | > 500 | > 500
4 | C[C@H]1c2cccc(O)c2C(=O)C2=C(O)[C@]3(O)C(=O)C(C(N)=O)=C(O)[C@@H](N(C)C)[C@@H]3[C@@H](O)[C@@H]21.O [DOXYCYCLINE] | ≤ 0.25 | ≤ 1 | ≤ 0.5 | 1 | 8 | 8 | ≤ 2 | 4
5 | CC(=O)NC[C@H]1CN(c2ccc(N3CCOCC3)c(F)c2)C(=O)O1 [LINEZOLID] | – | – | – | – | 2 (≈ 5.93 µM) | – | – | –
6 | C[C@H]1COc2c(N3CCN(C)CC3)c(F)cc3c(=O)c(C(=O)O)cn1c23.C[C@H]1COc2c(N3CCN(C)CC3)c(F)cc3c(=O)c(C(=O)O)cn1c23.O [LEVOFLOXACIN] | > 16 | 8 | > 16 | > 16 | 8 | > 8 | 8 | > 8
7 | CN[C@H](CC(C)C)C(=O)N[C@H]1C(=O)N[C@@H](CC(N)=O)C(=O)N[C@H]2C(=O)N[C@H]3C(=O)N[C@H](C(=O)N[C@H](C(=O)O)c4cc(O)cc(O)c4-c4cc3ccc4O)[C@H](O)c3ccc(c(Cl)c3)Oc3cc2cc(c3O[C@@H]2O[C@H](CO)[C@@H](O)[C@H](O)[C@H]2O[C@H]2C[C@](C)(N)[C@H](O)[C@H](C)O2)Oc2ccc(cc2Cl)[C@H]1O [VANCOMYCIN] | 256 (≈ 177 µM) | 512 (≈ 353 µM) | 512 (≈ 353 µM) | 1020 (≈ 707 µM) | 256 (≈ 177 µM) | 1020 (≈ 707 µM) | 512 (≈ 353 µM) | > 512
8 | Cc1onc(-c2ccccc2)c1C(=O)N[C@@H]1C(=O)N2[C@@H]1SC(C)(C)[C@@H]2C(=O)O [OXACILLIN] | > 16 | > 16 | > 16 | > 16 | – | – | – | –
9 | CC[C@H]1OC(=O)[C@H](C)[C@@H](O[C@H]2C[C@@](C)(OC)[C@@H](O)[C@H](C)O2)[C@H](C)[C@@H](O[C@@H]2O[C@H](C)C[C@H](N(C)C)[C@H]2O)[C@](C)(O)C[C@@H](C)C(=O)[C@H](C)[C@@H](O)[C@]1(C)O [ERYTHROMYCIN] | > 8 | > 8 | > 8 | > 8 | > 8 | > 8 | > 8 | > 8
10 | CCCCCCCCCC(=O)N[C@@H](Cc1c[nH]c2ccccc12)C(=O)N[C@H](CC(N)=O)C(=O)N[C@@H](CC(=O)O)C(=O)N[C@@H]1C(=O)NCC(=O)N[C@@H](CCCN)C(=O)N[C@@H](CC(=O)O)C(=O)N[C@H](C)C(=O)N[C@@H](CC(=O)O)C(=O)NCC(=O)N[C@H](CO)C(=O)N[C@@H]([C@H](C)CC(=O)O)C(=O)N[C@@H](CC(=O)c2ccccc2N)C(=O)O[C@@H]1C | ≤ 0.5 | 2 (≈ 1.23 µM) | ≤ 0.5 | 1 (≈ 0.617 µM) | 1 (≈ 0.617 µM) | – | 1 (≈ 0.617 µM) | 2 (≈ 1.23 µM)
11 | CN[C@@H]1[C@H](O[C@H]2[C@H](O[C@H]3[C@H](O)[C@@H](O)[C@H](N=C(N)N)[C@@H](O)[C@@H]3N=C(N)N)O[C@@H](C)[C@]2(O)C=O)O[C@@H](CO)[C@H](O)[C@H]1O [STREPTOMYCIN] | – | – | – | – | ≤ 1000 | ≤ 1000 | > 1000 | > 1000
